The results in this text go back to patent US20100092456A1, “METHODS OF TREATMENT” (priority 2006, published 2010).

Test [1] has as its system PtdIns(4,5)P2 in HeLa cells. The test is described as follows: PtdIns(4,5)P2 levels visualised with GFP-PH domain of PLCdelta1 probe in HeLa cells. The class given is cell-based. The settings on record: 600 microMolar H2O2, no recovery hours after stimulation. From the text: Changes in intracellular PtdIns(4,5)P2 levels following stimulation with neurokinin A were visualised in real time using a fusion protein of GFP and the PH domain of PLCdelta1 as a probe. GFP PLC delta 1 is a highly specific in vivo probe for PIP2 in cells.
HeLa cells were transiently transfected with an expression plasmid encoding a fusion protein of GFP and the PH domain of PLCdelta1.
HeLa cells were transiently transfected with an expression plasmid encoding a fusion protein of GFP and the pleckstrin homology domain of PLCdelta1. GFP PLC delta1 is a highly specific in vivo probe for PtdIns(4,5)P2 in cells. Results are in FIG. 10.

For test [2], the system named is nuclear PtdIns4P and PtdIns5P in differentiated MEL cells. The test can be described thus: Mass assay of nuclear PtdIns4P and PtdIns5P in differentiated MEL cells. The class given is cell-based, Murine. The note with it: NAC 5 mM or BSO 100 μM for 4 hours, H2O2 500 μM for 15 minutes, vs control-treated cells. As to the method:
B) Differentiated MEL cells were treated with NAC (5 mM) or BSO (100 μM), each for 4 hours, or H2O2 (500 μM) for 15 minutes prior to the isolation of intact nuclei. A mass assay was used to determine the levels of PtdIns4P and PtdIns5P. The results are expressed as % of control-treated differentiated MEL cells and are calculated from 3 independent experiments.
MEL, HEK 293 and HT1080 cells were maintained in routine culture using 10% FCS in DMEM. When required, differentiated MEL cells were prepared by the addition of 1.5% DMSO to the culture medium for a period of 4 days. MEL cells were transfected using Effectene (Qiagen), HEK 293 cells with calcium phosphate and HT1080 with LT1 (Mirus corporation). The following plasmids were used: pEGFP, pCDNA3 (both from Clontech), pCDNA3-Flag-MKK6+ and pCDNA3-Flag-MKK6-(from Dr. M. Schmidt, The Netherlands Cancer Institute), pSuper (from Dr. R. Agami, The Netherlands Cancer Institute), pCDNA3-EGFP-IpgD/IpgE, pCDNA3-EGFP-PIP kinase typeIIβ, and RNAi for type II β PIP kinase (termed pSuper-IIβRNAi). The targeting sequence for the latter was […]. Irradiation of the cells with 254 nm UV-C light (0-200 J/m) or gamma rays (0-40 Gy, from a Cesium 137 source) was performed using 6-well or 10 cm plastic petri dishes with a depth of medium covering the cells not exceeding 3-4 mm. Thereafter, the cells were returned to normal culture conditions for 30 minutes before subcellular fractionation was started. To determine long terms effects of UV and gamma irradiation the cells were returned to normal culture conditions for up to 48 hours.
MEL cells were washed, twice in ice cold PBS before their fractionation using a detergent-free hypotonic buffer. This method yields a mixed cytosol and membrane fraction and intact nuclei after separation using a sucrose cushion. MEL cell nuclei were fractionated into nucleoplasm and the CEF using modifications of a previously published method. Briefly, intact MEL cell nuclei were resuspended in ice cold hypotonic buffer (3 mM EDTA, 0.2 mM EGTA and 1 mM DTT pH 7.85, with protease inhibitors) followed by forced passage (12 times) through a 25 gauge needle. After centrifugation (1700 g) the supernatant (the nucleoplasm) was saved. The pellet (CEF) was washed twice before resuspending by sonication in 10 mM TrisHCl, 10% sucrose, 10 mM MgCl2 pH 7.4, with protease inhibitors. The protein content of all fractions was determined using the Bradford reagent (BioRad). PtdIns4P and PtdIns5P were measured using in vitro mass assays employing recombinant type I and type II PIP kinases, respectively. The product PtdIns(4,5)P2 was separated by TLC. The amount of radioactivity found in PtdIns(4,5)P2 was proportional to the amount of PtdInsP isomer in the neomycin affinity-purified lipid extract.
However, no studies have determined a role for nuclear phosphoinositides or defined downstream protein targets mediating phosphoinositide-stress activated pathways. To study changes in nuclear phosphoinositides in response to cellular stress, we used Murine erythroleukaemia (MEL) cells as a model system because preparations of nuclei from these cells have been proven to be of high purity. To visualise changes in phosphoinositides, various independent methods were used. The mass level of both PtdIns4P and PtdIns5P were measured using an assay that relies on the differential in vitro specificities of type I and type II PIP kinases. […] Gamma irradiation (10 Gy) led to a small (approximately 20%) decrease in the PtdIns4P level but no detectable change in the level of PtdIns5P in whole nuclei (FIG. 1a). To determine if nuclear PtdInsPs were regulated by oxidative stress we treated differentiated MEL cells with H2O2, BSO (L-buthionine[S,R]-sulphoximine, a glutamyl-cysteine synthetase inhibitor, which increases intracellular reactive oxygen species (ROS)) or NAC. (N-acetyl-cysteine, which increases cellular glutathione levels and cell' capability to deal with ROS). […]

Another test deals with HeLa cells. The test can be described thus: Apoptosis of HeLa cells by nuclear morphology. The format is cell-based. The settings on record: 600 microMolar, 24 hours. As to the method: HeLa cell were transiently transfected with expression plasmids encoding for the listed proteins. Cell were then treated with 600 microMolar H2O2 for 24 hours. All cells were collected and examined for apoptosis (Example 5).
The inventors have shown that type I PIP kinase protects cells from ROS induced apoptosis. HeLa cells were transiently transfected with expression plasmids encoding for the listed proteins. Cells were then treated with 600 microMolar H2O2 for 24 hours. All cells were collected and examined for apoptosis. Apoptosis was determined by examining nuclear morphology of green cells (GFP Histone) after staining with a nuclear stain. Cells with fragmented nuclei were scored positive for apoptosis. […] Ectopic expression of PIP 5-K protects HeLa cells from apoptosis after H2O2 treatment. Results are in FIG. 11.

The target in the next test is T1, PIP 5-K (Mus musculus, UniProt P70181).
T1 construct: expressed in transfected cells; host or cells: HeLa cells
T1 sequence (P70181 whole entry): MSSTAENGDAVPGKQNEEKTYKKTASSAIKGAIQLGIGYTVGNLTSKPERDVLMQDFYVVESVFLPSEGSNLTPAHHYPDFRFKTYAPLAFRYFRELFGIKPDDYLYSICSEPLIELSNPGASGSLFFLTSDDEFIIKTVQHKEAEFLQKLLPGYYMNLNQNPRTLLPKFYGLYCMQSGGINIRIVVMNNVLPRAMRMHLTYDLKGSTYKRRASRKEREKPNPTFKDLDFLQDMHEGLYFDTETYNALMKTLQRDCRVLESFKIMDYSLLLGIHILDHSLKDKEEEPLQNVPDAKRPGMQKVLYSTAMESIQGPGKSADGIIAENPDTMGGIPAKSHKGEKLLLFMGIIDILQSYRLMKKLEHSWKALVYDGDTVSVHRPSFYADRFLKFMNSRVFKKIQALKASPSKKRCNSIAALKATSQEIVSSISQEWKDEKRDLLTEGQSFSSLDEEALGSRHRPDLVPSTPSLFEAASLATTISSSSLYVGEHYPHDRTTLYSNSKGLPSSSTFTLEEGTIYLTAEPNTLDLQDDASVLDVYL
The test is described as follows: Localisation of GFP PIP 5-K in HeLa cells by confocal laser scanning microscopy. The format is cell-based. The settings on record: 600 microMolar, away from the plasma membrane. As to the method:
Panel A: HeLa cell were transiently transfected with expression plasmids encoding for a GFP fusion protein of PIP 5-K. In healthy cells GFP PIP 5-K is located at the plasma membrane. Cells were then treated with 600 microMolar H2O2 and the localisation of the GFP PIP 5-K was monitored on line using confocal laser scanning microscopy.
HeLa cells were transiently transfected with expression plasmids encoding for a GFP fusion protein of PIP 5-K. In healthy cells GFP PIP 5-K is located at the plasma membrane. Cells were then treated with 600 microMolar H2O2 and the localisation of the GFP PIP 5-K was monitored on line using confocal laser scanning microscopy. […] H2O2 regulates the localisation of the enzyme in vivo. (FIG. 12, panel A)

In the case of `OO` [H2O2], in test [1], the “PtdIns(4,5)P2 levels (GFP-PH probe at plasma membrane)” value is listed as “sustained depletion”. In addition, in test [2], the “level of nuclear PtdIns4P” value is reported as “increased” and the “level of nuclear PtdIns5P” value is “increased”. For the same compound, the “apoptosis (fragmented nuclei)” value in the test on HeLa cells is reported as “induces apoptosis”. The “localisation of GFP PIP 5-K” value on PIP 5-K is “induces translocation”.
